In patent publication US20080287532A1, “OXACYCLOPENTENE-2 DERIVATIVES” (priority 2007, published 2008):
Like-named read-outs stand apart in the source and are kept apart here.

Experiments:
[1] = test system: anti-SRBC IgM secreting plasma cells (antibody-forming cells, AFC); type: in vivo; conditions: for AFC number increase, % of control: mice immunized with SRBC
From the text: Humoral-mediated immune response is routinely measured using the antibody-forming cell (AFC) assay. Primarily used for evaluating humoral immunity, this assay, in fact, evaluates overall immune competence including T- and B-cell function, antigen processing and presentation. Sheep Red Blood Cells (SRBC) are the most common T-dependent antigen used for this assay.
Primary IgM response after SRBC administration was quantitatively estimated using a modified hemolytic plaque-forming cell assay
Since SRBC are T-dependent antigen, a normal AFC response depends on multiple factors: antigen processing and presentation actuated by macrophages, appropriate T-cell signalling, B-cells differentiation, and affinity maturation of antibodies in plasma cells.
(§1) For induction of a primary humoral PFC response, C57BL/6J mice were immunized intraperitoneally with 0.1 ml of a 5% suspension of SRBC, containing 1×10^8 cells. On day 5 after immunization animals were sacrificed under deep ether anesthesia, spleens were dissected out and minced through a stainless steel mesh. Individual spleen cell suspensions were washed three times with Hank's BSS, nucleated cells number was determined with a haemocytometer, viability was assessed by exclusion of trypan blue and adjusted to 1×10^7 viable cells per ml in Medium 199 containing Earle's salts and L-glutamine.
(§2) For the PFC assay, suspensions containing 1×10^6 spleen cells, 1×10^9 SRBCs and guinea pig serum (diluted 1:10, a source of complement), were introduced into a Cunningham chambers (100 μl volume) and incubated for 1 h at 37° C. The number of hemolytic plaques, produced by anti-SRBC IgM secreting plasma cells, was counted using a light microscope, and the number of PFC determined for each mice was expressed per 1×10^6 spleen cells and per whole spleen.

[2] = test system: cellular immune response (T-cells response) to SRBC; experiment: Delayed Type Hypersensitivity test (DTH), foot pad edema after SRBC challenge; type: in vivo, mice
Description: The method of Lagrange et al. was used. Mice were sensitized intravenously (iv) with 10^5 SRBC in saline. After 4 days, the mice were given eliciting dose of the antigen: 10^8 SRBS in 20 mcl of sterile saline into right hind paw, left hind paw was injected with 20 mcl of sterile saline. In 24 hours after challenge, the foot pad edema volume was measured using a caliper. The difference in volume (mcl) between the right paw (antigen-injected) and left paw (saline-injected) is calculated (Δ) and used as edema volume.

[3] = test system: antibody production (AFC) after Adriamycin immunosuppression; experiment: Adriamycin-induced immunosuppression model, antibody (AFC) response to SRBC; type: in vivo, mice
Description: as §1, §2
Immunosupression in mice was induced by parentreral administration of Adriamycin or Cyclophosphamide. Mice were injected with Adriamycin intraperitoneally in a dose of 5 mg/kg one day before the immunization with SRBC. Cyclophosphamide was used in a dose of 100 mg/kg 24 hours before the antigen challenge with SRBC.
Even in this extreme situation, administration of 2-methyl-3-ethoxycarbonyl-4-(2-methoxyphenyl)-5-methoxy-(1-oxacyclopentene-2, example 6) in dose 2.5 mg/kg produces a nearly 3 folds increase in antibody levels. […] (See FIG. 8).

[4] = Administered dose related to LD50; type: in vivo; conditions: Levamisol dose 2.5 mg/kg
[5] = dose 10 mg/kg, mice sensitized with SRBC

| SMILES | AFC number increase, % of control ([1]; dose 2.5 mg/kg) [%] | AFC number increase, % of control ([1]; dose 5 mg/kg) [%] | AFC number increase, % of control ([1]; dose 10 mg/kg) [%] | DTH foot pad edema, % of control [2, 5] [%] | other results |
| --- | --- | --- | --- | --- | --- |
| CCCCCCCCCCCC1C(C(=O)OCC)=C(C)OC1OC (stereo not shown) [Example 4] | 253 | 330 | 282 | 240 |  |
| CCCCC1C(C(=O)OCC)=C(C)OC1OC (stereo not shown) [Example 12] | 251 | 239 | 291 | 230 |  |
| CCOC(=O)C1=C(C)OC(OC)C1c1ccccc1OC (stereo not shown) [Example 6] | 260 | 229 | 440 | 190 | Increase in antibody levels ([3]; dose 2.5 mg/kg, Adriamycin 5 mg/kg i.p. one day before SRBC immunization): ~3 folds |
| CCOC(=O)C1=C(C)OC(OC)C1c1cccnc1 (stereo not shown) [Example 13] | 168 | 201 | 191 | 180 |  |
| CCOC(=O)C1=C(CC)OC(OC)C1c1ccc(C)cc1C (stereo not shown) [Example 16] | 165 | 192 | 217 | 140 |  |
| CCOC(=O)C1=C(C)OC(OC)C1c1ccc(Cl)cc1Cl (stereo not shown) [Example 7] | 269 | 302 | 358 | 230 |  |
| CCOC(=O)C1=C(C)OC(OC)C1c1cccc(OC)c1 (stereo not shown) [Example 14] | 135 | 187 | 254 | 200 |  |
| COC1OC(C)=C(C(=O)[O-])C1CC(C)C.[Li+] (stereo not shown) [Example 10] | 290 | 320 | 470 | 360 |  |
| COC1OC(C)=C(C(=O)O)C1CC(C)C (stereo not shown) [Example 9] | 230 | 320 | 360 | 360 |  |
| COc1cccc2c1C(=O)c1c(O)c3c(c(O)c1C2=O)C[C@@](O)(C(=O)CO)C[C@@H]3O[C@H]1C[C@H](N)[C@H](O)[C@H](C)O1 [Adriamycin] |  |  |  |  | Total number of AFC, % of initial values ([3]; after Adriamycin administration (5 mg/kg i.p.)): 1-2% |
| CCOC(=O)C1=C(C)OC(OC)C1c1ccc(OC)cc1 (stereo not shown) [Example 15] | 291 | 312 | 267 | 160 |  |
| CCOC(=O)C1=C(C)OC(OC)C1CC(C)C (stereo not shown) [Example 1] | 209 | 275 | 453 | 300 |  |
| CCCCCCCCCC1C(C(=O)OCC)=C(C)OC1OC (stereo not shown) [Example 3] | 225 | 289 | 326 | 250 |  |
| CCCCCCC1C(C(=O)OCC)=C(C)OC1OC (stereo not shown) [Example 11] | 245 | 241 | 287 | 210 |  |
| c1ccc([C@H]2CN3CCSC3=N2)cc1 [Levamisol, reference compound] | 121 |  |  |  | Increase in antibody formation ([1]; Levamisol positive reference, dose 2.5 mg/kg): 20%; Toxic effects (AFC not determined at higher doses) ([1]; mouse, in vivo): ND (toxic effects); DTH foot pad edema, % of control ([2]; Levamisol positive control, dose 2.5 mg/kg): 240%; Cellular immune response increase ([2]; after Levamisol administration): 240%; Antibody response in Adriamycin immunosuppression model ([3]; Adriamycin-induced immunosuppression): no antibody response; Administered dose as % of LD50 [4]: 10 % of LD50 |
| CCOC(=O)C1=C(C(Br)Br)OC(OC)C1c1ccccc1 (stereo not shown) [Example 8] | 188 | 276 | 271 | 260 |  |
| CCOC(=O)C1=C(C)OC(OC)C1c1ccccc1 (stereo not shown) [Example 5] | 202 | 324 | 259 | 200 |  |
| CCCCCC1C(C(=O)OCC)=C(C)OC1OC (stereo not shown) [Example 2] | 360 | 331 | 330 | 220 |  |
